Laboratory results reported in patent US10435414B2, “Tricyclic PI3K inhibitor compounds and methods of use” (Genentech, Inc., priority 2015, dated 2019).

Target: PI3Kα (alpha) (Homo sapiens (Human), UniProt P42336)
Assay: p110α (alpha) PI3K binding assay (ADP-Glo lipid kinase reaction, Ki by Morrison equation)
Assay type: biochemical
Settings: PI3K alpha 0.2 nM, ATP 40 μM, PIP2:3PS 50 μM, 120 min, room temperature; read-out: PI3Kα-(alpha) ATP (Ki) micromolar
Description: PI3K Binding assays are intended for determining the biochemical potency of small molecule PI3K inhibitors. The PI3K lipid kinase reaction is performed in the presence of PIP2:3PS lipid substrate (Promega #V1792) and ATP. Following the termination if the kinase reaction, turnover of ATP to ADP by the phosphorylation of the lipid substrate is detected using the Promega ADP-Glo™ (Promega #V1792) assay. Reactions are carried out using the following conditions:
After 120 minutes of reaction time, the kinase reaction is terminated. Any ATP remaining after the reaction is depleted, leaving only ADP. Then the Kinase Detection Reagent is added to convert ADP to ATP, which is used in a coupled luciferin/luciferase reaction. The luminescent output is measured and is correlated with kinase activity.
All reactions are carried out at room temperature. […] The reaction is started by the addition of 2 μl ATP/MgCl2. The kinase reaction buffer contains 50 mM HEPES, 50 mM NaCl, 3 mM MgCl2, 0.01% BSA, 1% DMSO, and enzyme and substrate concentrations as indicated in the above table. The reaction is stopped by the addition of 10 μL ADP-Glo reagent. Plates are read in a Perkin Elmer Envision system using luminescence mode. 10 point dose response curves are generated for each test compound. Ki values for each compound are determined using the Morrison Equation.

Sequence of PI3Kα (alpha) (P42336 whole entry): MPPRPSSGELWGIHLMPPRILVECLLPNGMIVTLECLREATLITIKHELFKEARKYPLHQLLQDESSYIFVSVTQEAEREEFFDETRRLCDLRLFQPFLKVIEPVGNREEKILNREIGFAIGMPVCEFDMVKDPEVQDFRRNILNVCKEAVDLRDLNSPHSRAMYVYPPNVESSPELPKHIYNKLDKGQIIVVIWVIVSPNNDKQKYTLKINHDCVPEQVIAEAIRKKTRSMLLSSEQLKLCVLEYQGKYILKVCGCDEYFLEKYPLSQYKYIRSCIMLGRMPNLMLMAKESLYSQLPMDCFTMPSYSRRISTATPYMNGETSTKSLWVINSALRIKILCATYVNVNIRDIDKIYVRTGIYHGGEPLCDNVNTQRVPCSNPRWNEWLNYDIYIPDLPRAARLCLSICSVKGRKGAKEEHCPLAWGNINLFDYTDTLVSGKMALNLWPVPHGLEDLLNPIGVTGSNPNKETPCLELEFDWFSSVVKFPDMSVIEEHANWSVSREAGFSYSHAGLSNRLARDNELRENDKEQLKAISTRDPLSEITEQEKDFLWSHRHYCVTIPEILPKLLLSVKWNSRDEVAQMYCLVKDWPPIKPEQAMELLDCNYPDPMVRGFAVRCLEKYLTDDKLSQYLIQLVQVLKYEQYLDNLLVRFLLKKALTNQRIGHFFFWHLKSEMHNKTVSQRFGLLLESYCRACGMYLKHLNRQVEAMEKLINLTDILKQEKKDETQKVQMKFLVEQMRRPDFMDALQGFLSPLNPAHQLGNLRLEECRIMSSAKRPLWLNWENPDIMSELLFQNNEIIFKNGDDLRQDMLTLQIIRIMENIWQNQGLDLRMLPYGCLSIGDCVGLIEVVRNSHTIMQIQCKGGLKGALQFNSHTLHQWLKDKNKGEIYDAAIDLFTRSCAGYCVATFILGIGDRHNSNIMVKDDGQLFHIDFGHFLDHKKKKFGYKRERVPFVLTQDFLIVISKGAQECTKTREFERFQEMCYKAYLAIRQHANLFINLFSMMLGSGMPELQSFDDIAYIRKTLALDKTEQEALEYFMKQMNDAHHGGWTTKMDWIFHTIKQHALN
Sequence of PI3Kα (alpha) (P27986 whole entry partner): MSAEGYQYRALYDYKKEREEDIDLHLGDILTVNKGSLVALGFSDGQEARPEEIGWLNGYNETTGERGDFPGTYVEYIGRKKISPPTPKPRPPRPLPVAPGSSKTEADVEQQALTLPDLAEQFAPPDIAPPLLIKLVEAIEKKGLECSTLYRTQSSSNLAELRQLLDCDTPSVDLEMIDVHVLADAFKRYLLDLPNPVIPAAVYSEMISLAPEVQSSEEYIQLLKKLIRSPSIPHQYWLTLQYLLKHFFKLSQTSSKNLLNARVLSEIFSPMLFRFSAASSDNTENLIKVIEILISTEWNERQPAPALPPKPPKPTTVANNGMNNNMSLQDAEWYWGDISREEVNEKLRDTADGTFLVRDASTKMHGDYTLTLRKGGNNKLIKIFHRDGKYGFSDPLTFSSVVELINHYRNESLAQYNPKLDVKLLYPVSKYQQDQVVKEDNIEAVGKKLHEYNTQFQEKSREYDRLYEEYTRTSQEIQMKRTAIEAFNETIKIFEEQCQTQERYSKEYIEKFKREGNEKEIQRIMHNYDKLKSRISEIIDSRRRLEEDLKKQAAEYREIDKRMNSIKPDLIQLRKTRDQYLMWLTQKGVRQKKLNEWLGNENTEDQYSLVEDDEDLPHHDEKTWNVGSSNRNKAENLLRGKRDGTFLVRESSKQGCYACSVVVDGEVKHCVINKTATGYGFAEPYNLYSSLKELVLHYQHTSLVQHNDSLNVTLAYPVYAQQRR

Row | Ki | Structure (SMILES)
1 | 0.104 nM | NC(=O)[C@H](Oc1cc2c3c(c1)nc(-c1ccc4oc(N)nc4c1)n3CCCCO2)C1CC1 (single isomer, unassigned) [Example 283]
2 | < 0.02 nM | NC(=O)[C@@H](Oc1cc2c3c(c1)nc(-c1ccc4oc(N)nc4c1)n3CCCCO2)C1CC1 (single isomer, unassigned) [Example 284]
3 | 0.1 nM | NC(=O)[C@H](Oc1cc2c3c(c1)nc(-c1cc(F)c4oc(N)nc4c1)n3CCCCO2)C1CC1 (single isomer, unassigned) [Example 288]
4 | < 0.02 nM | NC(=O)[C@@H](Oc1cc2c3c(c1)nc(-c1cc(F)c4oc(N)nc4c1)n3CCCCO2)C1CC1 (single isomer, unassigned) [Example 289]
